# T1: human plasma hyaluronidase (Homo sapiens, UniProt Q12794)
# T1 construct: made in house
# T1 sequence (Q12794 22-435): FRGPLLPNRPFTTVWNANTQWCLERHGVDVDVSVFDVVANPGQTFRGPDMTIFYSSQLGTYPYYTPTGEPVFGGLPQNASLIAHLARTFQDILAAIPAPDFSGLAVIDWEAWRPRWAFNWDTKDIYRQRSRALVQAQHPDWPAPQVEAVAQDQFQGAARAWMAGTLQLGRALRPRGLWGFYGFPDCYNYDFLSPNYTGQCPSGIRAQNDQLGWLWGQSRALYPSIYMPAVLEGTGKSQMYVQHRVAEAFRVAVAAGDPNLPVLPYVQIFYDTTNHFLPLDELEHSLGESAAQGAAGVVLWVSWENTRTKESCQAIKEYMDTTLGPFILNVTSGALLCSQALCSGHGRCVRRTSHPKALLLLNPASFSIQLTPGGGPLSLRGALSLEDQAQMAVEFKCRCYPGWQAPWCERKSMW
# B1: Recombinant human plasma hyaluronidase: immunoaffinity purified recombinant human plasma hyaluronidase (HYAL1), acid-active enzyme (protein)
# chain: T1 sequence (Q12794 22-435)
# Key:
# [1] = target: T1, human plasma hyaluronidase; assay: Effect of EDTA and added calcium on activity of purified human plasma hyaluronidase; format: biochemical; conditions: purified preparations of human plasma hyaluronidase
# Procedure: One hundred mg of human umbilical cord HA (ICN Pharmaceuticals; Irvine Calif.) was dissolved in 0.1 M MES, pH 5.0, to a final concentration of 1 mg/ml and allowed to dissolve for at least 24 hr at 4° C. prior to coupling of biotin. Sulfo-NHS (Pierce; Rockford Ill.) was added to the hyaluronate MES solution to a final concentration of 0.184 mg/ml. Biotin hydrazide (Pierce) was dissolved in DMSO as a stock solution of 100 mM and added to the HA solution to a final concentration of 1 mM. A stock solution of 1-ethyl-3-(3-dimethylaminopropyl) carbidodiimide (EDAC) was prepared as a 100 mM stock solution in distilled water and added to the HA biotin solution at a final concentration of 30 mM. This solution was left stirring overnight at 4° C. […]
# (§1) The reaction was terminated by the addition of 200 μl/well of 6M Guanidine HCl followed by three washes of 300 μl/well with PBS, 2 M NaCl, 50 mM MgSO4, 0.05% TWEEN 20 detergent (Buffer B). […] The plate was incubated in the dark for 10-15 min, then read using a 492 nm filter in an ELISA plate reader (Titertek Multiskan PLUS; ICN) monitored by computer using the Delta Soft II plate reader software from Biometallics (Princeton N.J.). A standard curve using the bovine testicular hyaluronidase was generated by a four parameter curve fit of the commercial hyaluronidase preparation and unknown samples were interpolated through their absorbance at 492 nm.
# [2] = tested on: human foreskin primary keratinocyte cultures; assay: Hyaluronidase activity in primary foreskin keratinocyte cultures after calcium-induced differentiation; format: cell-based; conditions: 1.5 mM calcium compared to 0.05 mM calcium, 72 hr in culture
# Procedure: Hyaluronidase activity also was characterized in normal keratinocytes. Primary foreskin keratinocyte cultures were generated from circumcision tissue from […]. Briefly, tissue was washed 5× in PBS with penicillin, streptomycin, and fungizone, followed by digestion overnight at 4° C. in dispase. Epithelium was stripped from mesenchymal tissue with forceps and digested in trypsin followed by plating on collagen-coated plates in KGM (keratinocyte growth medium) with 0.05 mM calcium (Clonetics; San Diego Calif.). Cells were used between the first and fourth passage. To test the effects of induction of differentiation on hyaluronidase activity, cells were plated into 6 well plates and, at confluence, the medium was either replaced with fresh KGM with 0.05 mM calcium or changed to KGM with 1.5 mM calcium.
# Cell layers and conditioned media were harvested after 72 hr in culture. Cell layers were harvested with 60 mM octylglucoside with 50 U/ml DNase I (Boehringer Mannheim; Indianapolis Ind.) and Complete™ protease inhibitor cocktail (Boehringer Mannheim) in PBS. Cells were extracted for 30 min on ice followed by centrifugation at 10,000× g for 10 min. Conditioned media from each sample was treated with octylglucoside and protease inhibitors. […] Activity was expressed as rTRU/mg cellular protein.
# [3] = Microtiter-based hyaluronidase assay on immobilized biotinylated HA, pH dependence of enzyme activity; format: biochemical
# Procedure: One hundred mg of human umbilical cord HA (ICN Pharmaceuticals; Irvine Calif.) was dissolved in 0.1 M MES, pH 5.0, to a final concentration of 1 mg/ml and allowed to dissolve for at least 24 hr at 4° C. prior to coupling of biotin. Sulfo-NHS (Pierce; Rockford Ill.) was added to the hyaluronate MES solution to a final concentration of 0.184 mg/ml. Biotin hydrazide (Pierce) was dissolved in DMSO as a stock solution of 100 mM and added to the HA solution to a final concentration of 1 mM. A stock solution of 1-ethyl-3-(3-dimethylaminopropyl) carbidodiimide (EDAC) was prepared as a 100 mM stock solution in distilled water and added to the HA biotin solution at a final concentration of 30 mM. This solution was left stirring overnight at 4° C. Unlinked biotin and EDAC were removed by dialysis against water with 3 changes of 1000× volume of water. The dialyzed, biotinylated HA (bHA) was aliquoted and stored at −20° C. for up to several months.
# Sulfo-NHS was diluted to 0.184 mg/ml in water with the bHA at a concentration of 0.2 mg/ml and pipetted into 96 well COVALINK-NH plates (NUNC; Placerville N.J.) at 50 μl per well. EDAC was diluted to 0.123 mg/ml in water and pipetted into the COVALINK-NH plates with the HA solution resulting in a final concentration of 10 μg/well hyaluronate and 6.15 μg/well EDAC. […]
# as §1, with “nm. […]” for “nm.”
molecule,measurement,setting,value
[Ca+2] [calcium],stimulatory effect on enzyme activity,[1]; added calcium,nor did added calcium have a stimulatory effect
same,increase in hyaluronidase activity in conditioned media and cell layer,[2],approximately 25 fold
"O=C(O)CN(CCN(CC(=O)O)CC(=O)O)CC(=O)O [EDTA, reference compound]",inhibitory effect on enzyme activity,[1],no inhibitory effect
B1,pH optimum of hyaluronidase activity,"[3]; 0.1 rTRU enzyme, 50 mM buffers pH 3-8 without NaCl, 30 min at 37° C.",3.8 pH
same,enzyme activity above pH 4.5,[3]; above pH 4.5,no detectable activity
same,enzyme activity at neutral pH,[3]; neutral pH,no activity was detected
